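96-well plates; 48 h exposure; 5 concentrations. Endpoints by linear interpolation between flanking doses. Not reached: highest tested concentration assigned. The concentration for full growth arrest is given as TGI.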
Experiments:
Assay in all cases: NCI anticancer screen, dose series, 48 h
786-0 renal = test system: 786-0 renal
A498 renal = test system: A498 renal
A549 NSCLC = test system: A549 NSCLC
ACHN renal = test system: ACHN renal
CAKI-1 renal = test system: CAKI-1 renal
CCRF-CEM leukemia = test system: CCRF-CEM leukemia
COLO 205 colon = test system: COLO 205 colon
DLD-1 colon = test system: DLD-1 colon
DMS 114 small cell lung = test system: DMS 114 small cell lung
DMS 273 small cell lung = test system: DMS 273 small cell lung
EKVX NSCLC = test system: EKVX NSCLC
HCC-2998 colon = test system: HCC-2998 colon
HCT-116 colon = test system: HCT-116 colon
HCT-15 colon = test system: HCT-15 colon
HL-60(TB) leukemia = test system: HL-60(TB) leukemia
HOP-18 NSCLC = test system: HOP-18 NSCLC
HOP-62 NSCLC = test system: HOP-62 NSCLC
HOP-92 NSCLC = test system: HOP-92 NSCLC
HT29 colon = test system: HT29 colon
IGROV1 ovarian = test system: IGROV1 ovarian
K-562 leukemia = test system: K-562 leukemia
KM12 colon = test system: KM12 colon
KM20L2 colon = test system: KM20L2 colon
LXFL 529 NSCLC = test system: LXFL 529 NSCLC
M14 melanoma = test system: M14 melanoma
M19-MEL melanoma = test system: M19-MEL melanoma
MALME-3M melanoma = test system: MALME-3M melanoma
MOLT-4 leukemia = test system: MOLT-4 leukemia
NCI-H226 lung = test system: NCI-H226 lung
NCI-H23 lung = test system: NCI-H23 lung
NCI-H460 lung = test system: NCI-H460 lung
NCI-H522 lung = test system: NCI-H522 lung
OVCAR-3 ovarian = test system: OVCAR-3 ovarian
OVCAR-4 ovarian = test system: OVCAR-4 ovarian
OVCAR-5 ovarian = test system: OVCAR-5 ovarian
OVCAR-8 ovarian = test system: OVCAR-8 ovarian
RPMI-8226 leukemia = test system: RPMI-8226 leukemia
SF-268 CNS = test system: SF-268 CNS
SF-295 CNS = test system: SF-295 CNS
SF-539 CNS = test system: SF-539 CNS
SK-MEL-2 melanoma = test system: SK-MEL-2 melanoma
SK-MEL-28 melanoma = test system: SK-MEL-28 melanoma
SK-MEL-5 melanoma = test system: SK-MEL-5 melanoma
SK-OV-3 ovarian = test system: SK-OV-3 ovarian
SN12C renal = test system: SN12C renal
SNB-19 CNS = test system: SNB-19 CNS
SNB-75 CNS = test system: SNB-75 CNS
SR leukemia = test system: SR leukemia
SW-620 colon = test system: SW-620 colon
TK-10 renal = test system: TK-10 renal
U251 CNS = test system: U251 CNS
UACC-257 melanoma = test system: UACC-257 melanoma
UACC-62 melanoma = test system: UACC-62 melanoma
UO-31 renal = test system: UO-31 renal
XF 498 CNS = test system: XF 498 CNS
LOX IMVI melanoma = test system: LOX IMVI melanoma
RXF 393 renal = test system: RXF 393 renal
RXF-631 renal = test system: RXF-631 renal
SNB-78 CNS = test system: SNB-78 CNS

Measured: TGI

CCOC(=O)C(=O)Nc1cc(Cl)ccc1Cl
not listed: LOX IMVI melanoma | RXF 393 renal | RXF-631 renal | SNB-78 CNS
> 100 µM: all other assays above

COc1cc2c(cc1OC)C1(c3ccc(Cl)cc3)ON=C(c3ccccc3)N1CS2 (stereo not drawn)
not listed: OVCAR-8 ovarian | XF 498 CNS
> 100 µM: all other assays above

CCO/C=C1\N=C(c2ccccc2Br)OC1=O
not listed: HCT-116 colon | HOP-18 NSCLC | IGROV1 ovarian | KM12 colon | SK-MEL-5 melanoma | SR leukemia | U251 CNS | RXF-631 renal
> 100 µM: all other assays above
